The values that follow are results of earlier work, collected in patent US20250161451A1, “ULTRASOUND-RESPONSIVE NANOSCALE DELIVERY PLATFORM FOR USE IN THE TREATMENT OF BIOFILM-ASSOCIATED DISEASES” (priority 2023, published 2025).

For this data set, the system named is MRSA biofilms. Particulars: co-delivery with stimulated phase-shift nanodroplet platform, in vitro.

Molecules are shown by their SMILES.

For the molecule `CN[C@H](CC(C)C)C(=O)N[C@H]1C(=O)N[C@@H](CC(N)=O)C(=O)N[C@H]2C(=O)N[C@H]3C(=O)N[C@H](C(=O)N[C@H](C(=O)O)c4cc(O)cc(O)c4-c4cc3ccc4O)[C@H](O)c3ccc(c(Cl)c3)Oc3cc2cc(c3O[C@@H]2O[C@H](CO)[C@@H](O)[C@H](O)[C@H]2O[C@H]2C[C@](C)(N)[C@H](O)[C@H](C)O2)Oc2ccc(cc2Cl)[C@H]1O` [vancomycin], the “bactericidal effect on MRSA biofilms” value is recorded as “strong but incomplete bactericidal effect”.
